Calls of active or inactive are those of the source. The calls are words filed in the database; no cut-off is given here.
Columns and labels:
EJ [1] = assay: Induction of apoptosis in human EJ cells assessed as decrease in procaspase-9 level at 5 uM after 24 hrs by Western blot analysis; type: functional, cell-based
EJ [2] = assay: Induction of apoptosis in human EJ cells assessed as increase in cytosolic cytochrome c level at 5 uM after 24 hrs by Western blot analysis; type: functional, cell-based
EJ [3] = assay: Induction of apoptosis in human EJ cells assessed as viable cells at 5 uM after 24 hrs by annexin V-FITC/propidium iodide staining-based flow cytometric analysis (reference value: 99.6%); type: functional; conditions: read-out: Activity
EJ [4] = assay: Induction of apoptosis in human EJ cells assessed as early apoptotic cells at 5 uM after 24 hrs by annexin V-FITC/propidium iodide staining-based flow cytometric analysis (reference value: 0.01 to 0.04%); type: functional
EJ [5] = assay: Induction of apoptosis in human EJ cells assessed as late apoptotic cells at 5 uM after 24 hrs by annexin V-FITC/propidium iodide staining-based flow cytometric analysis (reference value: 0.08 to 0.22%); type: functional
EJ [6] = assay: Induction of apoptosis in human EJ cells assessed as necrotic cells at 5 uM after 24 hrs by annexin V-FITC/propidium iodide staining-based flow cytometric analysis (reference value: 0.28 to 0.30%); type: functional
EJ [7] = assay: Induction of apoptosis in human EJ cells assessed as nuclear condensation at 5 uM after 24 hrs by Hoechst 33342 staining-based confocal microscopic analysis; type: functional, cell-based
EJ [8] = assay: Induction of apoptosis in human EJ cells assessed as formation of apoptotic bodies at 5 uM after 24 hrs by Hoechst 33342 staining-based confocal microscopic analysis; type: functional, cell-based
EJ [9] = assay: Induction of necrosis in human EJ cells assessed as disruption of membrane integrity at 15 uM after 1 hr by propidium iodide uptake assay; type: functional, cell-based
Jurkat = assay: Cytotoxicity against human Jurkat cells assessed as growth inhibition after 72 hrs by MTT assay; type: functional, cell-based
HeLa = assay: Cytotoxicity against human HeLa cells assessed as growth inhibition after 72 hrs by MTT assay; type: functional, cell-based
EJ [10] = assay: Cytotoxicity against human EJ cells assessed as growth inhibition after 72 hrs by MTT assay; type: functional, cell-based
5637 = assay: Cytotoxicity against human 5637 cells assessed as growth inhibition after 72 hrs by MTT assay; type: functional, cell-based; conditions: Homo sapiens, 5637, 72 h
PC-3 = assay: Cytotoxicity against human PC3 cells assessed as growth inhibition after 72 hrs by MTT assay; type: functional, cell-based; conditions: PC-3, 72 h
EJ [11] = assay: Cytotoxicity against human EJ cells assessed as cell death up to 20 uM measured within 1 hr by MTT assay; type: functional, cell-based
EJ [12] = assay: Induction of apoptosis in human EJ cells assessed as decrease in procaspase-3 level at 5 uM after 24 hrs by Western blot analysis; type: functional, cell-based
EJ [13] = assay: Induction of apoptosis in human EJ cells assessed as caspase-8 activation at 5 uM after 24 hrs by Western blot analysis; type: functional, cell-based
[14] = Hemolytic activity in mouse RBC at 100 uM after 1 hr by ELISA relative to control; type: ADME, cell-based, Erythrocyte; conditions: for hemolysis at 1 h, 100 µM: mouse red blood cells, read-out: Activity; for Activity: erythrocyte, 1 h, 100 µM
EJ [15] = assay: Cytotoxicity against human EJ cells assessed as cell death at 10 to 20 uM after 1 hr by MTT assay; type: functional, cell-based
EJ [16] = assay: Induction of apoptosis in human EJ cells assessed as disruption of mitochondria with frequent fusion between great number of vaculoes at 5 uM after 24 hrs by transmission electron microscopic analysis; type: functional, cell-based
EJ [17] = assay: Induction of apoptosis in human EJ cells assessed as nuclear fragmentation at 5 uM after 24 hrs by transmission electron microscopic analysis; type: functional, cell-based
EJ [18] = assay: Induction of apoptosis in human EJ cells assessed as peripheral nuclear chromatin condensation at 5 uM after 24 hrs by transmission electron microscopic analysis; type: functional, cell-based
EJ [19] = assay: Induction of apoptosis in human EJ cells assessed as cristae swelling at 5 uM after 24 hrs by transmission electron microscopic analysis; type: functional, cell-based
EJ [20] = assay: Induction of apoptosis in human EJ cells assessed as mitochondrial matrix condensation at 5 uM after 24 hrs by transmission electron microscopic analysis; type: functional, cell-based
EJ [21] = assay: Induction of necrosis in human EJ cells assessed as disruption of membrane integrity measuring loss of microvilli at 15 uM after 1 hr by scanning electron microscopic analysis; type: functional, cell-based
EJ [22] = assay: Induction of necrosis in human EJ cells assessed as disruption of membrane integrity measuring pore formation at 15 uM after 1 hr by scanning electron microscopic analysis; type: functional, cell-based
EJ [23] = assay: Cytotoxicity against human EJ cells assessed as cell death at 5 to 20 uM after 24 hrs by MTT assay; type: functional, cell-based

SMILES	Activity (EJ [1])	Activity (EJ [2])	viability at 5 µM (EJ [3])	Activity (EJ [4])	Activity (EJ [5])	Activity (EJ [6])	Activity (EJ [7])	Activity (EJ [8])	Activity (EJ [9])	IC50 (Jurkat)	IC50 (HeLa)	IC50 (EJ [10])	IC50 5637	IC50 (PC-3)	Activity (EJ [12])	Activity (EJ [13])	further results
CC(C)c1ccc2c(c1)CC[C@H]1[C@](C)(CNC(=S)N[C@H]3CCCC[C@@H]3N3CCCC3)CCC[C@]21C	Active	Active	0.35%	95.1%	4.53%	0%	Active	Active	Active	4.5 µM	5.76 µM	4.29 µM	5.18 µM	6.57 µM	–	–	–
CC(C)c1ccc2c(c1)CC[C@H]1[C@](C)(C(=O)O)CCC[C@]21C [DEHYDROABIETIC ACID]	–	–	–	–	–	–	–	–	–	25.5 µM	28.4 µM	25.1 µM	27.6 µM	28.1 µM	–	–	–
C=C[C@H]1CN2CC[C@H]1C[C@H]2[C@H](O)c1ccnc2ccc(OC)cc12 [QUININE]	–	–	–	–	–	–	–	–	–	> 50 µM	> 50 µM	> 50 µM	> 50 µM	> 50 µM	–	–	Activity (EJ [11]): inactive
CC(C)c1ccc2c(c1)CC[C@H]1[C@](C)(CN)CCC[C@]21C	Active	Active	6.16%	87.9%	5.85%	0.13%	Active	Active	Active	4.85 µM	7.68 µM	4.82 µM	8.7 µM	7.88 µM	inactive	inactive	hemolysis at 1 h, 100 µM [14]: 17.9%; Activity (EJ [15]): Active
CC(C)c1ccc2c(c1)CC[C@H]1[C@](C)(CNC(=S)N[C@H]3CCCC[C@@H]3N)CCC[C@]21C	Active	Active	8.8%	81.9%	9.06%	0.25%	Active	Active	Active	3.48 µM	3.73 µM	3.05 µM	3.14 µM	3.52 µM	inactive	inactive	Activity (EJ [16]): Active; Activity (EJ [17]): Active; Activity (EJ [18]): Active; Activity (EJ [19]): Active; Activity (EJ [20]): Active; Activity (EJ [21]): Active; Activity (EJ [22]): Active; hemolysis at 1 h, 100 µM [14]: 74.4%; Activity (EJ [15]): Active
CC(C)c1ccc2c(c1)CC[C@H]1[C@](C)(CNC(=S)N[C@@H]3CCCC[C@H]3N3CCCC3)CCC[C@]21C	Active	Active	0.64%	94.6%	4.73%	0.01%	Active	Active	Active	3.39 µM	4.47 µM	3.44 µM	3.59 µM	4.7 µM	–	–	–
CC(C)c1ccc2c(c1)CC[C@H]1[C@](C)(CNC(=S)N[C@H]3CCCC[C@@H]3N(C)C)CCC[C@]21C	Active	Active	0.32%	92.2%	7.45%	0%	Active	Active	Active	4.32 µM	5.12 µM	4.19 µM	4.62 µM	5.53 µM	–	–	–
C=CC1CN2CCC1CC2[C@H](NC(=S)NC[C@]1(C)CCC[C@]2(C)c3ccc(C(C)C)cc3CC[C@@H]12)c1ccnc2ccc(OC)cc12 (stereo partly drawn)	Active	Active	6.83%	89%	4.01%	0.12%	Active	Active	inactive	2.2 µM	3.21 µM	2.07 µM	2.64 µM	2.98 µM	inactive	inactive	Activity (EJ [16]): Active; Activity (EJ [17]): Active; Activity (EJ [18]): Active; Activity (EJ [19]): Active; Activity (EJ [20]): Active; Activity (EJ [21]): inactive; Activity (EJ [22]): inactive; Activity (EJ [23]): Active; Activity [14]: Non-toxic; Activity (EJ [11]): inactive
C=C[C@H]1C[N@@]2CC[C@H]1C[C@H]2[C@H](O)c1ccnc2ccc(OC)cc12 [QUININE]	–	–	–	–	–	–	–	–	–	–	–	–	–	–	–	–	Activity [14]: Non-toxic

— ChEMBL document CHEMBL2396547, “Anticancer effects of a novel class rosin-derivatives with different mechanisms” (Bioorg Med Chem Lett, 2013)
